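Values below derive from 48-hour exposures of cells grown in 96-well plates, with endpoints linearly interpolated between the two concentrations bracketing the appropriate inhibition level. GI50 = concentration required for 50% inhibition of growth.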 The source made the active and inactive calls. Cut-off read from the data, not from the text of the source: active = GI50 up to about 1.1 µM and inactive = higher.
How the values were obtained:
Experiment in all cases: NCI-60 cell line screen, 48 h
A498 = test system: A498
CAKI-1 = test system: CAKI-1
CCRF-CEM = test system: CCRF-CEM
HCT-116 = test system: HCT-116
M14 = test system: M14
MCF7 = test system: MCF7
MDA-MB-435 = test system: MDA-MB-435
NCI-H226 = test system: NCI-H226
NCI/ADR-RES = test system: NCI/ADR-RES
OVCAR-4 = test system: OVCAR-4
SF-295 = test system: SF-295
SK-MEL-2 = test system: SK-MEL-2
SK-MEL-5 = test system: SK-MEL-5
SN12C = test system: SN12C
SNB-75 = test system: SNB-75
T47D = test system: T47D
U-251 = test system: U-251
UACC-62 = test system: UACC-62
UO-31 = test system: UO-31
SK-OV-3 = test system: SK-OV-3

Measured: GI50

Cc1cc(Cc2c(F)c(F)c(C(c3cc(C)no3)c3c(F)c(F)c(F)c(F)c3F)c(F)c2F)on1 (stereo unspecified)
inactive: A498 > 100 µM | CAKI-1 > 72.8 µM | CCRF-CEM 62.7 µM | HCT-116 18.3 µM | M14 24 µM | MCF7 6.76 µM | MDA-MB-435 3.04 µM | NCI-H226 > 100 µM | NCI/ADR-RES > 28.2 µM | OVCAR-4 > 100 µM | SF-295 5.41 µM | SK-MEL-2 9.71 µM | SK-MEL-5 7.16 µM | SN12C > 50.7 µM | SNB-75 86.7 µM | T47D > 100 µM | U-251 18.4 µM | UACC-62 > 27 µM | UO-31 > 100 µM

COc1cccc(/C=C/C2=NN(c3cccc(S(=O)(=O)O)c3)C3(C2)SCC(=O)N3c2nc3ccccc3s2)c1 (stereo unspecified)
inactive: A498 33 µM | CAKI-1 50.9 µM | CCRF-CEM 30.8 µM | HCT-116 62.7 µM | M14 80.9 µM | MCF7 27.6 µM | MDA-MB-435 24.4 µM | NCI-H226 23.8 µM | NCI/ADR-RES 53.3 µM | OVCAR-4 49.4 µM | SK-MEL-2 44.8 µM | SK-MEL-5 36 µM | SN12C 33.3 µM | SNB-75 74.6 µM | T47D 16.1 µM | U-251 30.5 µM | UACC-62 36 µM | UO-31 34.9 µM

Cc1cc(=O)oc2cc(OS(C)(=O)=O)ccc12
inactive: A498 > 100 µM | CAKI-1 > 100 µM | CCRF-CEM > 100 µM | HCT-116 > 100 µM | M14 > 100 µM | MCF7 > 100 µM | MDA-MB-435 > 100 µM | NCI-H226 > 100 µM | NCI/ADR-RES > 100 µM | OVCAR-4 > 100 µM | SF-295 > 100 µM | SK-MEL-2 > 100 µM | SK-MEL-5 > 100 µM | SN12C > 100 µM | SNB-75 > 100 µM | T47D > 100 µM | U-251 > 100 µM | UACC-62 > 100 µM

NC(=O)CC1OC(=O)Cc2cc3c(c(O)c21)C(=O)c1c(O)cccc1C3=O (stereo unspecified)
inactive: A498 43.9 µM | CAKI-1 > 100 µM | CCRF-CEM 59.8 µM | HCT-116 > 100 µM | M14 > 100 µM | MCF7 > 100 µM | MDA-MB-435 > 100 µM | NCI-H226 > 100 µM | NCI/ADR-RES > 100 µM | OVCAR-4 > 100 µM | SF-295 > 100 µM | SK-MEL-2 > 100 µM | SK-MEL-5 67.5 µM | SK-OV-3 > 100 µM | SN12C > 100 µM | T47D > 100 µM | U-251 > 100 µM | UACC-62 > 100 µM | UO-31 32.9 µM

O=C(c1ccco1)N1CCCN(C(=O)c2ccco2)C1=S
inactive: A498 > 100 µM | CAKI-1 > 100 µM | CCRF-CEM > 100 µM | HCT-116 > 100 µM | M14 > 100 µM | MCF7 74.8 µM | MDA-MB-435 > 100 µM | NCI-H226 36.4 µM | NCI/ADR-RES > 100 µM | SK-MEL-2 46.5 µM | SK-MEL-5 > 100 µM | SK-OV-3 > 100 µM | SN12C > 100 µM | T47D 7.35 µM | U-251 > 100 µM | UACC-62 > 100 µM | UO-31 > 100 µM

NC(=O)NC(=O)c1cccc(C(=O)NC(N)=O)n1
inactive: A498 > 100 µM | CAKI-1 > 100 µM | CCRF-CEM > 100 µM | HCT-116 > 100 µM | M14 > 100 µM | MCF7 > 100 µM | MDA-MB-435 > 100 µM | NCI-H226 > 100 µM | NCI/ADR-RES > 100 µM | OVCAR-4 > 100 µM | SF-295 > 100 µM | SK-MEL-2 > 100 µM | SK-MEL-5 > 100 µM | SK-OV-3 > 100 µM | SN12C > 100 µM | T47D > 100 µM | U-251 > 100 µM | UACC-62 > 100 µM | UO-31 > 100 µM

O=Cc1c2c(cc3c1CC1(C3)Cc3cc4c(c(C=O)c3C1)CCC4)CCC2
inactive: A498 30.7 µM | CCRF-CEM 17 µM | HCT-116 14.7 µM | M14 32.6 µM | MCF7 36 µM | MDA-MB-435 45.6 µM | NCI-H226 29.1 µM | NCI/ADR-RES 68.2 µM | OVCAR-4 20.9 µM | SF-295 59.3 µM | SK-MEL-2 21.3 µM | SK-MEL-5 29.9 µM | SK-OV-3 36.1 µM | SN12C 65.9 µM | T47D 46.1 µM | U-251 16.3 µM | UACC-62 22.3 µM | UO-31 2.37 µM

C=C1OC(c2ccccc2NC)=NC12CCCCC2
inactive: A498 > 100 µM | CAKI-1 > 100 µM | CCRF-CEM > 100 µM | HCT-116 > 100 µM | M14 > 100 µM | MCF7 > 100 µM | MDA-MB-435 > 100 µM | NCI-H226 > 100 µM | NCI/ADR-RES > 100 µM | OVCAR-4 > 100 µM | SF-295 > 100 µM | SK-MEL-5 > 100 µM | SK-OV-3 > 100 µM | SN12C > 100 µM | T47D > 100 µM | U-251 > 100 µM | UACC-62 > 100 µM | UO-31 > 100 µM
